Assay results published in patent EP4793276A1, “DRUG FOR DIAGNOSING DIABETIC NEPHROPATHY AND USE THEREOF” (Fudan University, priority 2023, dated 2025).

Key:
db/db model mice [1] = experiment: SPECT in vivo imaging; settings: 11.1 MBq via the tail vein, acquisition up to 2 hours, FIG.3
Method: SPECT scans were performed using the nanoScan SPECT/CT scanner (Mediso Medical Imaging Systems, Hungary). […] Immediately afterward, the radiation signal was acquired in three-dimensional mode every 30 minutes for up to 2 hours. The energy window is set to 360-700 keV. After completing the SPECT scan, mice were injected with iodofol (Optiray 350; Guerbet) via the tail vein at a dose of 5 µL/g body weight, followed immediately by a 30-second CT scan (X-ray source: 50 kV/980 µA, 480 projections; mice were anesthetized with 1.5% (v/v) isoflurane during both the SPECT and CT scans).

[2] = system: diabetic nephropathy mice; experiment: Ex vivo autoradiography of kidneys after tail vein injection; settings: mouse
Text: The spontaneous type 2 diabetes mice model was developed using the db/db homozygous mice (BKS.Cg-Dock7m+/+LeprdbJ; JAX® Mice Strain Code 607) discovered by the Jackson Laboratory in the United States. […] Their pathogenesis is very similar to that of subjects with type 2 diabetes. The control group mice were either normal mice (m/m) or heterozygous mice (m/db).
Sixty minutes later, the mice were euthanized by dislocation, and their kidneys were removed and rapidly frozen in dry ice. 20 µm frozen sections were prepared using a cryostat (Reward, RWD Minux FS800). Frozen sections were held in contact with the developing plate (FUJIFILM; BAS-IP SR 2025E) for 2 hours, and images were read and quantitatively analyzed using an autoradiography scanner (CR-35 Bio; Elysia-Raytest).

db/db model mice [3] = experiment: PET in vivo imaging; settings: 15 MBq intravenous, 90 minutes acquisition, FIG.3
Method: PET scans were performed using an Inveon scanner (Siemens Medical Solutions Knoxville, TN, USA). Mice (m/m and db/db mice) were anesthetized with 1.5% (v/v) isoflurane and then fixed in the center of the FOV of a PET scanner. Immediately after intravenous injection of ^18F-KIDJI-004 (15 MBq), 90 minutes of radiation signals were acquired in three-dimensional mode. The energy window is 350-750 keV. After the PET scan was completed, mice were intravenously injected with iodofol (35%) (Optiray 350; Guerbet) at a dose of 5 µL/g body weight, followed immediately by a 30-second CT scan (X-ray source: 70 kV/88 mA, FOV: 60 mm). Mice were anesthetized with 1.5% (v/v) isoflurane during PET and CT scans.

Structure (SMILES) | accumulation in the kidneys of normal mice (db/db model mice [1]) | accumulation in the renal pelvis of the kidneys of db/db model mice (db/db model mice [1]) | accumulation in the renal pelvis of diabetic nephropathy mice [2] | accumulation in the kidneys of normal mice (db/db model mice [3]) | accumulation in the renal pelvis of the kidneys of db/db model mice (db/db model mice [3])
O=C(c1ccc([N+](=O)[O-])cc1[131I])N1CCc2c(nnn2-c2ncccn2)C1 [^131I-KIDJI-009, (2-iodo-4-nitro)(1-(pyrimidin-2-yl)-1,4,6,7-tetrahydro-5H-[1,2,3]triazolo[4,5-c]pyridin-5-yl) methyl ketone] | no significant accumulation | significantly accumulated |  |  | 
C[C@H]1Cc2c(nnn2-c2ncccn2)CN1C(=O)c1ccnc(C(F)(F)F)c1[18F] [^18F-KIDJI-003, (S)-(3-fluoro-2-(trifluoromethyl)pyridin-4-yl)(6-methyl-1-(pyrimidin-2-yl)-1,4,6,7-tetrahydro-5H-[1,2,3]triazolo[4,5-c]pyridin-5-yl) methyl ketone] |  |  | significant accumulation |  | 
COc1ccc(C(=O)N2CCc3c(nnn3-c3ncccn3)C2)cc1[131I] [^131I-KIDJI-008, (3-iodo-4-methoxyphenyl)(1-(pyrimidin-2-yl)-1,4,6,7-tetrahydro-5H-[1,2,3]triazolo[4,5-c]pyridin-5-yl) methyl ketone] | no significant accumulation | significantly accumulated |  |  | 
Cc1cc(C(=O)N2Cc3nnn(-c4ncccn4)c3C[C@@H]2C)cc([18F])n1 [^18F-KIDJI-004, (S)-(2-fluoro-6-methylpyridin-4-yl)(6-methyl-1-(pyrimidin-2-yl)-1,4,6,7-tetrahydro-5H-[1,2,3]triazolo[4,5-c]pyridin-5-yl) methyl ketone] |  |  |  | no significant accumulation | significantly accumulated
O=C(c1ccc([131I])cc1)N1CCc2c(nnn2-c2ncccn2)C1 [^131I-KIDJI-007, (4-iodophenyl)(1-(pyrimidin-2-yl)-1,4,6,7-tetrahydro-5H-[1,2,3]triazolo[4,5-c]pyridin-5-yl) methyl ketone] | no significant accumulation | significantly accumulated |  |  | 
O=C(c1ccc([131I])cc1F)N1CCc2c(nnn2-c2ncccn2)C1 [^131I-KIDJI-010, (2-fluoro-4-iodophenyl)(1-(pyrimidin-2-yl)-1,4,6,7-tetrahydro-5H-[1,2,3]triazolo[4,5-c]pyridin-5-yl) methyl ketone] | no significant accumulation | significantly accumulated |  |  | 
